Measured values as given in US10076519B2 (CYTOKINETICS, INC., priority 2010, dated 2018).

tested on: rabbit skeletal myofibrils (fast skeletal myofibrils); assay: Activation of fast skeletal myofibrils (PUMA assay, PK/LDH-coupled ATPase at pCa25); format: biochemical; conditions: AC1.4 determined according to the procedure of Example 39; reported as class symbols
Protocol: Preparation of Fast Skeletal Myofibrils.
Rabbit skeletal myofibrils were prepared based upon the method of Herrmann et al. (Biochem. 32(28):7255-7263(1993). Myofibrils were prepared from rabbit psoas muscle purchased from Pel-Freez Biologicals (Arkansas) within 2 days of ordering, stored on ice. Minced muscle was homogenized in 10 volumes of ice-cold “standard” buffer (50 mM Tris, pH 7.4, 0.1M potassium acetate, 5 mM KCl, 2 mM DTT, 0.2 mM PMSF, 10 μM leupeptin, 5 μM pepstatin, and 0.5 mM sodium azide) containing 5 mM EDTA and 0.5% Triton X-100 using an Omni-Macro homogenizer. Myofibrils were recovered by low speed centrifugation (3000 rpm for 10 minutes) and washed 2 times in the Triton X-100 containing buffer to ensure removal of cellular membrane. Following the Triton washes, myofibrils were washed 3 times in “standard” buffer containing 2 mM magnesium acetate. A final wash in assay buffer (12 mM PIPES, pH 6.8, 60 mM KCl, 1 mM DTT) was performed and brought to 10% sucrose for flash freezing in liquid nitrogen and storage at −80° C.
Activation of Fast Skeletal Myofibrils.
Fast fiber activators were identified by measuring the enzymatic activity of muscle myofibril preparations using the proprietary PUMA™ (see, e.g., U.S. Pat. Nos. 6,410,254, 6,743,599, 7,202,051, and 7,378,254) assay system. Myofibril preparations consisted of rabbit skeletal muscle (approximately 90% fast fibers) that had been mechanically homogenized and washed with a detergent (triton X-100) to remove cellular membranes. This preparation retained all of the sarcomeric components in a native conformation and the enzymatic activity was still regulated by calcium. Compounds were tested using a myofibril suspension and a level of calcium sufficient to increase enzymatic activity of the myofibrils to 25% of their maximal rate (termed pCa25). Enzymatic activity was tracked via a pyruvate kinase and lactate dehydrogenase-coupled enzyme system. This assay regenerates myosin-produced ADP into ATP by oxidizing NADH, producing an absorbance change at 340 nm. The buffering system was 12 mM Pipes, 2 mM MgCl2, 1 mM DTT at pH 6.8 (PM12 buffer).
Using procedures similar to those described herein, utilizing reagents and intermediates commercially available (e.g., Sigma-Aldrich, St. Louis, Mo.) or readily synthesized by one of skill in the art, the compounds in Table 2 were synthesized, characterized and tested. AC1.4 values were determined according to the procedure described in Example 39, and the reported median AC1.4 values are as follows: A=<1 uM; B=1-10 uM; C=10-20 uM; D=>20 uM.

Mean AC1.4	Compound
B (B=1-10 uM)	CC(C)(CNc1ccc(-c2ccc3[nH]nc(N)c3c2)nn1)c1ccc(CCO)cc1
D (D=>20 uM)	CC(C)(O)c1ccc(C(C)(C)CNc2ccc(-c3ccc4[nH]nc(N)c4c3)nn2)cc1
D (D=>20 uM)	Oc1ccnc(C2(CNc3ccc(-c4ccc5cn[nH]c5c4)nn3)CCC2)c1
B (B=1-10 uM)	CC(C)(CNc1ccc(-c2cc(=O)[nH]c(N)n2)nn1)c1ccc(F)cc1
B (B=1-10 uM)	NC(=O)c1cccc(-c2ccc(NCC3CCCc4ccccc43)nn2)c1 (stereo not shown)
B (B=1-10 uM)	NC(=O)c1cccc(-c2ccc(NCCc3ccccc3Cl)nn2)c1
D (D=>20 uM)	N#Cc1cccc(-c2ccc(NCCc3ccc(Cl)cc3Cl)nn2)c1
C (C=10-20 uM)	NC(=O)c1cccc(-c2ccc(NCCc3ccc(Cl)cc3Cl)nn2)c1
C (C=10-20 uM)	NC(=O)c1cccc(-c2ccc(NCCc3ccc(F)c(F)c3)nn2)c1
A (A=<1 uM)	NC(=O)c1cccc(-c2ccc(NCC3(c4ncccc4F)CCC3)nn2)c1
D (D=>20 uM)	CC(C)(C)OC(=O)N(CC(C)(C)c1ncccc1F)c1ccc(-c2cccc(C(N)=O)c2)nn1
B (B=1-10 uM)	NC(=O)c1ccc(-c2ccc(NCC3(c4ncccc4F)CCC3)nn2)c(F)c1
D (D=>20 uM)	CC(C)(CNc1ccc(-c2ccc3[nH]nc(N)c3c2)nn1)c1ccc(C(N)=O)cc1
A (A=<1 uM)	CC(C)(CNc1ccc(-c2ccc3[nH]nc(N)c3c2)nn1)c1ccc(C#N)cc1
D (D=>20 uM)	CC(C)(CNc1ccc(C(=O)N2CCN(C(N)=O)CC2)nn1)c1ccc(F)cc1
B (B=1-10 uM)	COc1cccnc1C1(CNc2ccc(-c3cc(C(N)=O)ccc3F)nn2)CCC1
B (B=1-10 uM)	CC(C)(CNc1ccc(-c2ccc3[nH]c(=O)[nH]c3c2)nn1)c1ccccc1CO
D (D=>20 uM)	CC(C)(C)CNc1ccc(-c2ccc3[nH]c(=O)[nH]c3c2)nn1
B (B=1-10 uM)	O=c1ncc(-c2ccc(NCC3(c4ccc(F)cc4)CCC3)nn2)c[nH]1
A (A=<1 uM)	CC(C)(CNc1ccc(-c2ccc3[nH]c(=O)oc3c2)nn1)c1ccc(F)cc1
B (B=1-10 uM)	CC(C)(CNc1ccc(-c2ccc3nc[nH]c(=O)c3c2)nn1)c1ccc(F)cc1
B (B=1-10 uM)	CC(C)(C)OC(=O)N(CC(C)(C)c1ccc(F)cc1)c1ccc(-c2cc(=O)[nH]c(N)n2)nn1
B (B=1-10 uM)	CS(=O)(=O)Nc1ccc(-c2ccc(NCC3(c4ncccc4F)CCC3)nn2)cc1
D (D=>20 uM)	CC(C)(C)OC(=O)N1CCN(C(=O)c2ccc(NCC(C)(C)c3ccc(F)cc3)nn2)C(CO)C1 (stereo not shown)

Further lines, the molecule ahead of its results:

Compound	Mean AC1.4
CC(C)(O)c1cccc(C(C)(C)CNc2ccc(-c3ccc4[nH]nc(N)c4c3)nn2)c1	C (C=10-20 uM)
Oc1ccnc(C2(CNc3ccc(-c4ccc5[nH]ncc5c4)nn3)CCC2)c1	D (D=>20 uM)
CC(C)(CNc1ccc(-c2ccc3nc(N)[nH]c(=O)c3c2)nn1)c1ccc(F)cc1	A (A=<1 uM)
CC(C)(CNc1ccc(-c2ccc3c(=O)[nH]c(N)nc3c2)nn1)c1ccc(F)cc1	C (C=10-20 uM)
NC(=O)c1cccc(-c2ccc(NCC3(c4ncccc4F)CCC3)nn2)c1F	B (B=1-10 uM)
CC(C)(CNc1ccc(-c2ccc3[nH]nc(N)c3c2)nn1)c1cccc(O)c1	B (B=1-10 uM)
CC(C)(CNc1ccc(-c2ccc3[nH]nc(N)c3c2)nn1)c1cccc(C#N)c1	A (A=<1 uM)
CC(C)(CNc1ccc(-c2ccc3[nH]nc(N)c3c2)nn1)c1cccc(C(N)=O)c1	D (D=>20 uM)
CCCC(CNc1ccc(-c2cccc(C(N)=O)c2)nn1)c1ccccc1Cl (stereo not shown)	B (B=1-10 uM)
CC(CNc1ccc(-c2cccc(C(N)=O)c2)nn1)c1ccccc1F (stereo not shown)	B (B=1-10 uM)
CC(CNc1ccc(-c2cccc(C(N)=O)c2)nn1)N1CCCCC1=O (stereo not shown)	D (D=>20 uM)
CC(CNc1ccc(-c2cccc(C(N)=O)c2)nn1)N1CCCC1=O (stereo not shown)	D (D=>20 uM)
NC(=O)c1cccc(-c2ccc(NCCc3ccc(F)cc3F)nn2)c1	D (D=>20 uM)
NC(=O)c1cccc(-c2ccc(NCCc3cccc(Cl)c3)nn2)c1	B (B=1-10 uM)
NC(=O)c1cccc(-c2ccc(NCCc3ccc(Cl)c(Cl)c3)nn2)c1	C (C=10-20 uM)
NC(=O)c1cccc(-c2ccc(NCCc3cc(F)cc(F)c3)nn2)c1	D (D=>20 uM)
NC(=O)c1cccc(-c2ccc(NCCc3ccc(Cl)cc3)nn2)c1	D (D=>20 uM)
NC(=O)c1cccc(-c2ccc(NCCc3ccc(F)cc3)nn2)c1	D (D=>20 uM)
COc1ccc(CCNc2ccc(-c3cccc(C(N)=O)c3)nn2)cc1	D (D=>20 uM)
Cc1ccc(CCNc2ccc(-c3cccc(C(N)=O)c3)nn2)cc1	C (C=10-20 uM)
NC(=O)c1cccc(-c2ccc(NCC(CC3OCCO3)c3ccccc3F)nn2)c1 (stereo not shown)	D (D=>20 uM)
C[C@@H](CNc1ccc(-c2cccc(C(N)=O)c2)nn1)c1ccc(F)cc1	B (B=1-10 uM)
C[C@H](CNc1ccc(-c2cccc(C(N)=O)c2)nn1)c1ccc(F)cc1	B (B=1-10 uM)
NC(=O)c1cccc(-c2ccc(N[C@@H]3C[C@H]3c3ccccc3)nn2)c1	D (D=>20 uM)
NS(=O)(=O)c1cccc(-c2ccc(NCC3(c4ncccc4F)CCC3)nn2)c1	A (A=<1 uM)
NC(=O)c1cccc(-c2ccc(NCC3(c4ccc(F)cn4)CCC3)nn2)c1	B (B=1-10 uM)

Compound	Mean AC1.4
CC(C)(C)OC(=O)N(CC(C)(C)c1ccc(F)cc1)c1ccc(-c2cc(C(N)=O)ccc2F)nn1	D (D=>20 uM)
CC(C)(C)OC(=O)N(CC(C)(C)c1ccc(F)cc1)c1ccc(-c2cccc(C(N)=O)c2)nn1	D (D=>20 uM)
NC(=O)c1ccc(-c2ccc(NCC3(c4ncccc4F)CCC3)nn2)cc1	B (B=1-10 uM)
NC(=O)c1ccc(F)c(-c2ccc(NCC3(c4ccccn4)CCC3)nn2)c1	A (A=<1 uM)
NC(=O)c1ccc(F)c(-c2ccc(NCC3(c4ncccc4F)CCC3)nn2)c1	A (A=<1 uM)
NC(=O)c1ccc(F)c(-c2ccc(NCC3(c4cc(O)ccn4)CCC3)nn2)c1	D (D=>20 uM)
COc1ccnc(C2(CNc3ccc(-c4cc(C(N)=O)ccc4F)nn3)CCC2)c1	B (B=1-10 uM)
NC(=O)c1ccc(F)c(-c2ccc(NCC3(c4cccc(O)n4)CCC3)nn2)c1	D (D=>20 uM)
COc1cccc(C2(CNc3ccc(-c4cc(C(N)=O)ccc4F)nn3)CCC2)n1	A (A=<1 uM)
CC(C)(CNc1ccc(-c2ccc3[nH]c(=O)[nH]c3c2)nn1)c1ccccc1F	A (A=<1 uM)
CC(C)(CNc1ccc(-c2ccc3oc(=O)[nH]c3c2)nn1)c1ccc(F)cc1	B (B=1-10 uM)
CC(C)(Cc1ccc(F)cc1)Nc1ccc(-c2ccc3[nH]c(=O)[nH]c3c2)nn1	D (D=>20 uM)
CC(C)(CNc1ccc(-c2ccc3[nH]c(=O)[nH]c3c2)nn1)c1ccccc1	A (A=<1 uM)
O=c1[nH]c2ccc(-c3ccc(NCC4(c5ncccc5F)CCC4)nn3)cc2[nH]1	B (B=1-10 uM)
O=c1[nH]c2ccc(-c3ccc(NCC4(c5ccc(F)cc5)CC4)nn3)cc2[nH]1	A (A=<1 uM)
CC(C)(CNc1ccc(-c2ccc3[nH]nc(N)c3c2)nn1)c1ccccc1CO	B (B=1-10 uM)
CN(C)CCc1cccc(C(C)(C)CNc2ccc(-c3ccc4[nH]nc(N)c4c3)nn2)c1	D (D=>20 uM)
CC(C)(CNc1ccc(-c2ccc3[nH]nc(N)c3c2)nn1)c1cccc(CO)c1	B (B=1-10 uM)
CS(=O)(=O)Nc1cccc(-c2ccc(NCC3(c4ncccc4F)CCC3)nn2)c1	B (B=1-10 uM)
CC(C)(CNc1ccc(-c2ccc3[nH]nc(N)c3c2)nn1)c1ccc(CO)cc1	D (D=>20 uM)
CC1(C)CC1(CNc1ccc(-c2ccc3[nH]nc(N)c3c2)nn1)c1ccccc1 (stereo not shown)	A (A=<1 uM)
Nc1n[nH]c2ccc(-c3ccc(NCC4(c5ccccc5)CCC4)nn3)cc12	A (A=<1 uM)
Nc1n[nH]c2ccc(-c3ccc(NCC4(c5ccccc5)CC4)nn3)cc12	A (A=<1 uM)
CC(C)(CNc1ccc(CO)nn1)c1ccc(F)cc1	D (D=>20 uM)
CN(C)Cc1cccc(C(C)(C)CNc2ccc(-c3ccc4[nH]nc(N)c4c3)nn2)c1	D (D=>20 uM)
CN(C)Cc1ccc(C(C)(C)CNc2ccc(-c3ccc4[nH]nc(N)c4c3)nn2)cc1	D (D=>20 uM)
